Measurements as given in patent publication US9107879B1, “Methods of increasing the cytotoxicity of chemotherapeutic agents with multisubstrate inhibitors of histone, protein-lys, polyamine acetylation, and polyamine metabolism” (Vanderbilt University, priority 2010, dated 2015).

Key:
H358 lung cancer cells = test: [3H]-thymidine incorporation DNA synthesis assay; assay type: cell-based; conditions: for inhibition of DNA synthesis, single agent (FIG. 25): 1, 10 or 50 μM for 12 hours
Procedure: (A) Structures of 1a, and the acetylated side chain of a lysine residue within the polypeptide chain of a protein targeted by the acetylating enzyme (R1 and R2 are the main chain elements on both sides of the lysyl residue). (B) [^3H]-thymidine incorporation into DNA of H358 cells pulsed for 6 hrs at three different time points after the addition of increasing concentrations of 1a, i.e., at 6-12 hrs (12 hr curve), at 18-24 hours (24 hr curve), or at 42-48 hrs (48 hr curve). Incorporation is represented as a percentage relative to control (untreated) cells. (C) Cell cycle analysis of propidium iodide-stained cells harvested at various times after addition of 50 μM 1a. % of cells in G1, S, and G2 represents the average of two independent profiles. (D) Western analysis of histone H3 lysine 9 acetylation, histone H3 lysine 56 acetylation, histone H3 lysine 9 methylation, and total histone H3, before “c” or at the indicated times after addition of 50 μM 1a. Each lane represents 60 μg cellular protein.
Control cells were left untreated. […] Control cells were left untreated.
Cells were either labeled immediately before treatment (starting DNA synthesis rate), or subjected to the indicated treatments and then pulsed on successive days until day 4. DNA synthesis is represented as the percent of starting DNA synthesis rate. Viability was determined for each treatment condition 24 hours post-start of treatment by the trypan blue exclusion assay, with percentages of viable cells indicated to the right of the graph.
H358 cells (2,000/well) in 96-well plates were treated with 1, 10 or 50 μM of spd-1a, spd-2a, spd-3a, spm3, or spm2 for 12 hours. Triplicate wells of cells were pulsed 6 hours with 0.5 μCi [^3H]-thymidine (NEN, Boston Mass.) post-start of drug treatment, and harvested onto filter paper using a Brandel Harvester and subjected to scintillation counting. Untreated cells were pulsed 0-6 hrs to establish the initial rate of incorporation.
Cells were plated in 96-well plates (2000 cells per well to insure conditions for exponential growth for untreated cells over the time course of the experiment) and exposed to the following treatments: 1a (50 μM); camptothecin (Sigma, St Louis, Mo. 5 nM, 18 hours); cisplatin (Platinol, obtained through local pharmacies, 2 μM, 1 hour 15 minutes), 5-fluorouracil (5FU, Adrucil™, obtained through local pharmacies, 2 μM, 1 hour 15 minutes), Taxotere (provided by the late Dr. Pierre Potier, 5 nM, 18 hours). UVC treatment (40 J/m^2) using a Stratalinker™, Stratagene, La Jolla, Calif.) was carried using medium lacking phenol red. At 0-6 hr, 18-24 hr (day 1), 42-48 hr […], 66-72 hr (day 3), and 90-96 hr (day 4) post-start of treatment, triplicate wells were incubated with 0.5 μCi [^3H]-thymidine (NEN, Boston Mass.), harvested onto filter paper, and subjected to scintillation counting. Trypan blue exclusion assays for cell membrane integrity were carried out as known in the art.
The present inventors used [^3H]-thymidine incorporation assays to examine DNA synthesis in H358 lung cancer cells in the presence of varying concentrations of 1a. Cells were pulsed for 6 hours with [^3H]-thymidine at three different time points after the addition of 1a (i.e., at 6-12 hours, at 18-24 hours, and at 42-48 hours). The incorporation of [^3H]-thymidine into DNA decreased with increasing concentrations of 1a at all three time points, with the maximal effect occurring with the 6-12 hour pulse (FIG. 2B).
We then used [^3H]-thymidine incorporation assays to examine DNA synthesis in H358 lung cancer cells in the presence of 1a alone, or together with an 18 hour exposure to the DNA damaging drug, camptothecin (CPT), a plant alkaloid from which an important class of topoisomerase I-targeted chemotherapeutic agents (Hycamtin [topotecan] and Camptosar [irinotecan]) has been derived (Garcia-Carbonero, et al, 2002, Clin Cancer Res 8: 641-61). […]

GT41F skin fibroblasts = test: 96-well MTS viability assay; assay type: cell-based, human; conditions: 3 days; for sensitivity of normal fibroblasts compared with cancer cell lines: single agent

CC[C@@]1(O)C(=O)OCc2c1cc1n(c2=O)Cc2cc3ccccc3nc2-1 [camptothecin] was tested, and the “effect on [3H]-thymidine incorporation, single agent” value (H358 lung cancer cells; 1a 50 μM, camptothecin 5 nM (18 or 24 h)) was “no detectable effect”.

With CC(=O)NCCSCC(=O)NCCCNCCCCNCCCN [spm-3] the “sensitivity of normal fibroblasts compared with cancer cell lines” value (GT41F skin fibroblasts) was “sensitivity similar to that of H358 lung cancer cells” and the “inhibition of DNA synthesis, single agent (FIG. 25)” value (H358 lung cancer cells) was “inhibit DNA synthesis”.

CC(=O)NCCSCC(=O)NCCCNCCCCN [3a] was tested, and the “sensitivity of normal fibroblasts compared with cancer cell lines” value (GT41F skin fibroblasts) was “less sensitive”, the cell viability retained (GT41F skin fibroblasts; spd-3a 1 μM) was roughly 60% and the “inhibition of DNA synthesis, single agent (FIG. 25)” value (H358 lung cancer cells) was “inhibit DNA synthesis”. For the same compound, the “suppression of DNA synthesis in combination with camptothecin” value (H358 lung cancer cells; 3a + CPT 5 nM 18 hours, pulse from 42 hours) was “effective”.

For CC(C)(COP(=O)(O)OP(=O)(O)OC[C@H]1O[C@@H](n2cnc3c(N)ncnc32)[C@H](O)[C@@H]1OP(=O)(O)O)[C@@H](O)C(=O)NCCC(=O)NCCSCC(=O)NCCCNCCCCN [1a, spermidine[N1]-CoA], the “sensitization to cisplatin (CDDP), UVC irradiation and 5-FU in DNA synthesis assay” value (H358 lung cancer cells; 50 μM 1a + cisplatin 2 μM, UVC 40 J/m2 or 5FU 2 μM) was “sensitized”, the activity at 50 µM (H358 lung cancer cells; Homo sapiens, NCI-H358, 50 μM 1a + 5 nM camptothecin (18 h), 48 hours post-initiation, read-out: [3H]-thymidine incorporation, % of control incorporation) was less than 20% and the IC50 (H358 lung cancer cells; Homo sapiens, NCI-H358, 6-12 hour [3H]-thymidine pulse, read-out: IC50 for inhibition of DNA synthesis) was 50 to 100 µM.
